Where a name gives a salt, the structure may show the parent alone.
Legend:
cardiac microtissues [1] = assay: ATP depletion (CellTiter Glo Luminescent Cell Viability Assay) in cardiac microtissues; format: cell-based, human; details: the concentration is the IC30 of ATP depletion, or cell death caused
Description: Cellular ATP concentrations were also assessed using the CellTiter Glo® Luminescent Cell Viability Assay as per the manufacturer’s instructions (Promega).

[2] = ref FDA label, cited from earlier work; for Structural cardiotoxin?: FDA label references heart failure or a decrease in left ventricular ejection fraction; for Functional cardiotoxin?: compound annotation
cardiac microtissues [3] = assay: Transcriptomic profiling (mRNA-seq) and DESeq2 differential gene expression analysis in cardiac microtissues; details: for number of significant differentially expressed genes, 6hr high / number of significant differentially expressed genes, 6hr low / number of significant differentially expressed genes, 48hr high / number of significant differentially expressed genes, 48hr low / number of significant differentially expressed genes, 72hr high / number of significant differentially expressed genes, 72hr low: absolute log2(Fold-Change) > 1, FDR p ≤ 0.05; for number of significant differentially expressed genes, 6hr high / number of significant differentially expressed genes, 48hr high / number of significant differentially expressed genes, 72hr high: high concentration; for number of significant differentially expressed genes, 6hr low / number of significant differentially expressed genes, 48hr low / number of significant differentially expressed genes, 72hr low: low concentration

Compound	Transcriptomic high concentration (µM) = IC30 of ATP depletion (cardiac microtissues [1]) [µM]	Structural cardiotoxin? [2]	Functional cardiotoxin? [2]	number of significant differentially expressed genes, 6hr high (cardiac microtissues [3])	number of significant differentially expressed genes, 6hr low (cardiac microtissues [3])	number of significant differentially expressed genes, 48hr high (cardiac microtissues [3])	number of significant differentially expressed genes, 48hr low (cardiac microtissues [3])	number of significant differentially expressed genes, 72hr high (cardiac microtissues [3])	number of significant differentially expressed genes, 72hr low (cardiac microtissues [3])	impact on gene expression profiles (cardiac microtissues [3]; cardiac microtissues, all treatments)
CS(=O)(=O)CCNCc1ccc(-c2ccc3ncnc(Nc4ccc(OCc5cccc(F)c5)c(Cl)c4)c3c2)o1 [Lapatinib]	5.53	Y	Y	27	17	13	40	29	18	–
COc1cccc2c1C(=O)c1c(O)c3c(c(O)c1C2=O)C[C@@](O)(C(=O)CO)C[C@@H]3O[C@H]1C[C@H](N)[C@H](O)[C@H](C)O1 [Doxorubicin HCl]	0.36	Y	Y	17	26	5	5	4	5	low impact on gene expression profiles
